Measurements published in the NIST ThermoML archive (doi:10.1016/j.jct.2005.03.020).

Key:
[1] = xn = mol fraction of the nth substance listed; conditions: 298.15 K, 101.33 kPa, Liquid
[2] = excess molar enthalpy (molar enthalpy of mixing); xn = mol fraction of the nth substance listed; conditions: 298.15 K, 101.33 kPa, Liquid

ClCCCl [1,2-dichloroethane] + CCOC(C)=O
Conditions | excess molar enthalpy [kcal/mol] | mass density [kg/m3]
[1], x2 = 0.0497 | – | 1223.67
[1], x2 = 0.0983 | – | 1202.79
[1], x2 = 0.1492 | – | 1181.45
[1], x2 = 0.1997 | – | 1160.95
[1], x2 = 0.2524 | – | 1140.18
[1], x2 = 0.3059 | – | 1119.62
[1], x2 = 0.3618 | – | 1098.71
[1], x2 = 0.4184 | – | 1078.16
[1], x2 = 0.4765 | – | 1057.68
[1], x2 = 0.5356 | – | 1037.35
[1], x2 = 0.5982 | – | 1016.38
[1], x2 = 0.6603 | – | 996.21
[1], x2 = 0.7247 | – | 975.88
[1], x2 = 0.7893 | – | 955.96
[1], x2 = 0.857 | – | 935.65
[1], x2 = 0.928 | – | 914.85
[2], x2 = 0.0368 | -0.00939 | –
[2], x2 = 0.0819 | -0.021 | –
[2], x2 = 0.131 | -0.0345 | –
[2], x2 = 0.1846 | -0.0491 | –
[2], x2 = 0.2408 | -0.0642 | –
[2], x2 = 0.295 | -0.0779 | –
[2], x2 = 0.3419 | -0.0867 | –
[2], x2 = 0.3836 | -0.0935 | –
[2], x2 = 0.4244 | -0.101 | –
[2], x2 = 0.46 | -0.106 | –
[2], x2 = 0.4728 | -0.107 | –
[2], x2 = 0.4972 | -0.108 | –
[2], x2 = 0.5087 | -0.108 | –
[2], x2 = 0.5523 | -0.107 | –
[2], x2 = 0.604 | -0.104 | –
[2], x2 = 0.6668 | -0.0965 | –
[2], x2 = 0.747 | -0.0807 | –
[2], x2 = 0.8328 | -0.058 | –
[2], x2 = 0.9184 | -0.0322 | –

ClCCCCl [1,3-dichloropropane] + CCCC(=O)OCC
Conditions | excess molar enthalpy [kcal/mol] | mass density [kg/m3]
[1], x2 = 0.0446 | – | 1159.59
[1], x2 = 0.088 | – | 1141.99
[1], x2 = 0.1341 | – | 1124.03
[1], x2 = 0.1825 | – | 1105.75
[1], x2 = 0.2294 | – | 1088.7
[1], x2 = 0.2836 | – | 1069.63
[1], x2 = 0.3377 | – | 1051.42
[1], x2 = 0.3924 | – | 1033.68
[1], x2 = 0.4475 | – | 1016.45
[1], x2 = 0.5058 | – | 998.9
[1], x2 = 0.5686 | – | 980.73
[1], x2 = 0.6322 | – | 963.09
[1], x2 = 0.6986 | – | 945.45
[1], x2 = 0.7724 | – | 926.66
[1], x2 = 0.8405 | – | 910.03
[2], x2 = 0.045 | -0.00619 | –
[2], x2 = 0.0966 | -0.0152 | –
[2], x2 = 0.1504 | -0.0234 | –
[2], x2 = 0.2076 | -0.0352 | –
[2], x2 = 0.2635 | -0.0452 | –
[2], x2 = 0.3171 | -0.0564 | –
[2], x2 = 0.3678 | -0.0673 | –
[2], x2 = 0.4155 | -0.0743 | –
[2], x2 = 0.4596 | -0.0781 | –
[2], x2 = 0.5012 | -0.0799 | –
[2], x2 = 0.5417 | -0.0797 | –
[2], x2 = 0.605 | -0.0778 | –
[2], x2 = 0.6754 | -0.071 | –
[2], x2 = 0.7523 | -0.0583 | –
[2], x2 = 0.8348 | -0.0428 | –
[2], x2 = 0.9216 | -0.0239 | –

ClCCCCl [1,3-dichloropropane] + CCOC(=O)CC
[1]
Conditions | mass density [kg/m3]
x2 = 0.0533 | 1159.49
x2 = 0.1039 | 1141.98
x2 = 0.1552 | 1124.63
x2 = 0.2595 | 1090.43
x2 = 0.3141 | 1073.08
x2 = 0.3691 | 1056.04
x2 = 0.4264 | 1038.67
x2 = 0.4849 | 1021.36
x2 = 0.6033 | 987.47
x2 = 0.666 | 970.14
x2 = 0.7288 | 953.17
x2 = 0.7937 | 935.99
x2 = 0.861 | 918.65
x2 = 0.9271 | 901.62

ClCCCCl [1,3-dichloropropane] + CCOC(C)=O
[1]
Conditions | mass density [kg/m3]
x2 = 0.0582 | 1160.94
x2 = 0.1136 | 1144.62
x2 = 0.1719 | 1127.58
x2 = 0.2292 | 1110.81
x2 = 0.2869 | 1094.08
x2 = 0.3444 | 1077.42
x2 = 0.4017 | 1061.01
x2 = 0.4609 | 1044.12
x2 = 0.5208 | 1027.15
x2 = 0.5839 | 1009.34
x2 = 0.6423 | 992.92
x2 = 0.7017 | 976.39
x2 = 0.7599 | 960.24
x2 = 0.8205 | 943.48
x2 = 0.8803 | 927.01
x2 = 0.9389 | 911.03

ClCCCCl [1,3-dichloropropane] + CCOC=O
[1]
Conditions | mass density [kg/m3]
x2 = 0.076 | 1161.06
x2 = 0.1432 | 1145.36
x2 = 0.2073 | 1130.02
x2 = 0.2696 | 1114.94
x2 = 0.3338 | 1099.05
x2 = 0.394 | 1083.9
x2 = 0.4558 | 1068.05
x2 = 0.5152 | 1052.57
x2 = 0.5731 | 1037.18
x2 = 0.6297 | 1021.91
x2 = 0.6862 | 1006.34
x2 = 0.7413 | 990.94
x2 = 0.794 | 975.98
x2 = 0.8475 | 960.54
x2 = 0.8994 | 945.31
x2 = 0.9494 | 930.3

ClCCCCCl [1,4-dichlorobutane] + CCCC(=O)OCC
Conditions | excess molar enthalpy, [2] [kcal/mol] | mass density, [1] [kg/m3]
x2 = 0.0516 | -0.00502 | 1117.97
x2 = 0.1009 | – | 1103.15
x2 = 0.1108 | -0.0127 | –
x2 = 0.1531 | – | 1087.78
x2 = 0.172 | -0.0208 | –
x2 = 0.2042 | – | 1072.99
x2 = 0.2328 | -0.0297 | –
x2 = 0.2583 | – | 1057.63
x2 = 0.2891 | -0.0397 | –
x2 = 0.3128 | – | 1042.49
x2 = 0.3455 | -0.0467 | –
x2 = 0.3701 | – | 1026.87
x2 = 0.3976 | -0.053 | –
x2 = 0.4267 | – | 1011.74
x2 = 0.4477 | -0.0578 | –
x2 = 0.4757 | -0.0598 | –
x2 = 0.5265 | -0.0616 | –
x2 = 0.5437 | – | 981.4
x2 = 0.5821 | -0.0614 | –
x2 = 0.6058 | – | 965.8
x2 = 0.6443 | -0.0597 | –
x2 = 0.6681 | – | 950.44
x2 = 0.7111 | -0.0554 | –
x2 = 0.7293 | – | 935.66
x2 = 0.7821 | -0.0468 | –
x2 = 0.8567 | -0.0343 | –
x2 = 0.8601 | – | 905.05
x2 = 0.9259 | – | 890.1
x2 = 0.9323 | -0.0189 | –

ClCCCCCl [1,4-dichlorobutane] + CCOC(=O)CC
[1]
Conditions | mass density [kg/m3]
x2 = 0.0587 | 1117.82
x2 = 0.1153 | 1103.37
x2 = 0.1718 | 1088.99
x2 = 0.2299 | 1074.24
x2 = 0.2859 | 1060.13
x2 = 0.3447 | 1045.32
x2 = 0.403 | 1030.76
x2 = 0.4615 | 1016.16
x2 = 0.5233 | 1000.86
x2 = 0.5825 | 986.22
x2 = 0.6382 | 972.47
x2 = 0.698 | 957.78
x2 = 0.8187 | 928.2
x2 = 0.8774 | 913.87
x2 = 0.9378 | 899.14
